Values of other authors, collected in patent US20150366832A1, “CARBIDOPA/LEVODOPA GASTRORETENTIVE DRUG DELIVERY” (INTEC PHARMA LTD., priority 2008, published 2015).

| Compound | reduction of the amount of Levodopa required to produce a given response (Carbidopa given with Levodopa) | crossing of the blood-brain barrier (human, in vivo) | half-life (Carbidopa and Levodopa administered together) | plasma half-life (without Carbidopa) |
| --- | --- | --- | --- | --- |
| C[C@@](Cc1ccc(O)c(O)c1)(NN)C(=O)O [Carbidopa] | about 75% | does not cross the blood-brain barrier |  |  |
| N[C@@H](Cc1ccc(O)c(O)c1)C(=O)O [Levodopa] |  |  | about 1.5 hours | about 50 minutes |
